PMC9917099, “The Mycotoxin Patulin Inhibits the Mitochondrial Carnitine/Acylcarnitine Carrier (SLC25A20) by Interaction with Cys136 Implications for Human Health” (International Journal of Molecular Sciences, 2023)
Numbering of substitutions follows the chain as printed.

Columns and labels:
[1] = target: T1, rat CAC mutant C23V/C58V/C89S/C155V/C283S (Rattus norvegicus, UniProt P97521, C155V/C23V/C283S/C58V/C89S); test: Carnitine antiport in proteoliposomes, CAC mutant containing only C136; type: biochemical
T1 construct: made in house; host or cells: E. coli C0214 (pMW7, inclusion bodies)
T1 sequence (P97521 1-301 C23V/C58V/C89S/C155V/C283S): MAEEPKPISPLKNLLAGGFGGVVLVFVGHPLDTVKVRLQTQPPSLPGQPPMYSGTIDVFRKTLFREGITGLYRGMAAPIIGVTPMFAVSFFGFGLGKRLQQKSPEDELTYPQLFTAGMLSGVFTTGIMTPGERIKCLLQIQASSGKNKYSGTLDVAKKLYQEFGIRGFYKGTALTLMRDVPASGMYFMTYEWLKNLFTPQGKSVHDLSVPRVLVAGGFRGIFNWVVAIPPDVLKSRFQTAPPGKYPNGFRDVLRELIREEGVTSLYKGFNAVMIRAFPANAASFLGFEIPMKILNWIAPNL
Method: (§1) To shed light on the interaction between PAT and CAC and verify if specific Cys residues were involved, transport experiments on the recombinant rat and human WT CAC and CAC’s rat Cys mutants were performed. As in the case of the native protein, transport activities were measured as [^3H]-carnitine/carnitine antiport in proteoliposomes. […] The PAT inhibition of the WT recombinant protein was only slightly greater compared to the native protein, although compounds and other molecular systems that affect the mycotoxin binding to the native CAC were absent (see above). For identifying the residues involved in the PAT interaction, site-directed Cys mutants were tested for inhibition (Figure 2). […]
(§2) Figure 2 Dose-response analysis of the PAT inhibition of the CAC recombinant proteins. […] The data are expressed as a percentage of the controls (no PAT addition) and are means ± SD of three independent experiments. […]
(§3) For the transport assay, 550 μL of proteoliposomes were passed through a Sephadex G-75 column in order to remove the external substrate. […] After finishing the transport reaction, the external radiolabel substrate was removed by gel filtration chromatography (Sephadex G-75), and the intraliposomal radioactivity was measured by liquid scintillation. Transport was measured at 25 °C. […] Transport rates were measured in 10 min, i.e., within the initial linear range of the time course.

rat CAC mutant C136S = target: T2, rat CAC mutant C136S (Rattus norvegicus, UniProt P97521, C136S); test: Carnitine antiport in proteoliposomes, CAC mutant C136S; type: biochemical
T2 construct: made in house; host or cells: E. coli C0214 (pMW7, inclusion bodies)
T2 sequence (P97521 1-301 C136S): T1 sequence (P97521 1-301 C23V/C58V/C89S/C155V/C283S) with V23C, V58C, S89C, C136S, V155C, S283C
Method: as §1, §2, §3

O=C1C=C2C(=CCOC2O)O1 (centres unmarked) [PAT, 4-hydroxy-4H-furo [3,2c] pyran-2 [6H] -one]
IC50 [1]: comparable to the WT | IC50 (rat CAC mutant C136S): not possible to detect
